Laboratory results as given in patent publication US20240208997A1, “CYCLIC BENZIMIDAZOLE DERIVATIVES AS CGAS INHIBITORS” (Boehringer Ingelheim International GmbH, priority 2022, published 2024).

Biological target: cGAS (Homo sapiens, UniProt Q8N884)
Assay: Human cGAS enzyme assay (hcGAS IC50, in vitro), cGAMP formation by RapidFire MS
Format: biochemical
Set-up: HumancGAS (amino acid 1-522) with an N-terminal 6×-His-tag and SUMO-tag; 6xHis (N); SUMO (N); made in house; host or cells: E. coli BL21(DE3) pLysS
Details: Table 1; 45 bp dsDNA-activated enzyme
Description: 6.1 Method: Human cGAS Enzyme Assay (hcGAS IC50 (In Vitro))
Human cGAS enzyme was incubated in the presence of a 45 base pair double stranded DNA to activate the enzyme and GTP and ATP as substrates. Compound activity was determined by measuring the effect of compounds on the formation of the product of the enzyme reaction, cGAMP, which is measured by a mass spectrometry method.
HumancGAS (amino acid 1-522) with an N-terminal 6×-His-tag and SUMO-tag was expressed in E. coli BL21(DE3) pLysS (Novagen) cells for 16 h at 18° C. Cells were lysed in buffer containing 25 mM Tris (pH 8), 300 mM NaCl, 10 mM imidazole, 10% glycerol, protease inhibitor cocktail (cOmplete™, EDTA-free, Roche) and DNase (5 μg/mL). […] Purified protein was concentrated to 1.7 mg/mL and stored at −80° C.
Compounds were delivered in 10 mM DMSO solution, serially diluted and transferred to the 384 well assay plate (Greiner #781201) using an Echo acoustic dispenser. Typically, 8 concentrations were used with the highest concentration at 10 μM in the final assay volume followed by ^˜1:5 dilution steps. DMSO concentration was set to 1% in the final assay volume. The 384 well assay plate contained 22 test compounds (column 1-22), and DMSO in column 23 and 24.
After the compound transfer, 15 μL of the enzyme-DNA-working solution (12 nM cGAS, 0.32 μM 45base pair DNA in assay buffer, 10 mM Tris pH 7.5/10 mM KCl/5 mM MgCl2/1 mM DTT) were added to each well from column 1-23 via a MultiDrop Combi dispenser. In column 24, 15 μl of assay buffer without enzyme/DNA were added as a low control.
The plates were then pre-incubated for 60 min at room temperature.
Following that, 10 μL of GTP (ThermoFisher #R0461)-ATP (Promega #V915B) mix in assay buffer were added to the assay plate (columns 1-24, 30 μM final concentration each) using a Multidrop Combi.
The plates were incubated again for 90 min at room temperature.
Following the incubation, the reaction was stopped by 80 μL of 0,1% formic acid in assay buffer containing 5 nM cyclic-di-GMP (Sigma #SML1228) used as internal standard for the mass spectrometry. The total volume/well was 105 μL.
The plates were centrifuged at 4000 rpm, 4° C., for 5 min.
The RapidFire autosampler was coupled to a binary pump (Agilent 1290) and a Triple Quad 6500 (ABSciex, Toronto, Canada). […] Aspiration time: 250 ms; Load time: 3000 ms; Elute time: 3000 ms; Wash volume: 500 μL.
The MS was operated in positive ion mode with HESI ion source, with a source temperature of 550 C, curtain gas=35, gas 1=65, and gas 2=80. Unit mass resolution in SRM mode. The following transitions and MS parameters (DP: declustering potential and CE: collision energy) for cGAMP and DicGMP were determined:
Internal standard: cyclic-di-GMP at 690.1/540, DP=130, CE=30.
The formation of cGAMP was monitored and evaluated as ratio to cyclic-di-GMP.
Data Evaluation and Calculation:
For data evaluation and calculation, the measurement of the low control was set as 0% control and the measurement of the high control was set as 100% control. The IC50 values were calculated using the standard 4 parameter logistic regression formula. Calculation: [y=(a−d)/(1+(x/c)^b)+d], a=low value, d=high value; x=conc M; c=1C50 M; b=slope

cGAS, sequence (Q8N884 whole entry): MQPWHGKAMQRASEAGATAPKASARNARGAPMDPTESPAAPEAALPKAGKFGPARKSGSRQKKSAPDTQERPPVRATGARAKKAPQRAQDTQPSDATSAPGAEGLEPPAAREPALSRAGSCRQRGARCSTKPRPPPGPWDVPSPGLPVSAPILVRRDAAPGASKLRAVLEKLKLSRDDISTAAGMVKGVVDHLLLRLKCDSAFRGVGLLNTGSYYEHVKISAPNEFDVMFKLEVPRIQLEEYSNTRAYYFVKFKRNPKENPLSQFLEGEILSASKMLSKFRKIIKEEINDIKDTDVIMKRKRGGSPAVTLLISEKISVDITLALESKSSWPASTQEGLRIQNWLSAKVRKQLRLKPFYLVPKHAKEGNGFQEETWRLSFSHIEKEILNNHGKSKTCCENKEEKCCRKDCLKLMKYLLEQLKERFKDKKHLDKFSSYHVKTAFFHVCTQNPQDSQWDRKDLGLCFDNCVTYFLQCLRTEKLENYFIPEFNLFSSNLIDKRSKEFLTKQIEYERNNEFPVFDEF

Compound	IC50
C[C@H]1CN2CC[C@@H]1n1c(nc3ccccc31)O[C@H]1C[C@@H](C(=O)O)N(C1)c1nc(nc3c1oc1ccccc13)CCCC(C)(C)CCC2=O [Example 1.23]	41 nM
C[C@H]1CN2CC[C@@H]1n1c(nc3ccccc31)O[C@H]1C[C@@H](C(=O)O)N(C1)c1nc(nc3c1oc1ccccc13)CCCCCCC2=O (racemic) [Example 1.24]	18 nM
C[C@H]1CN2CC[C@@H]1n1c(nc3ccccc31)O[C@H]1C[C@@H](C(=O)O)N(C1)c1nc(nc3c1oc1ccccc13)CCCCCC2=O [Example 1.19]	3.8 nM
C[C@H]1CN2CC[C@@H]1n1c(nc3ccc(Cl)cc31)O[C@H]1C[C@@H](C(=O)O)N(C1)c1nc(nc3c1oc1ccccc13)CCOCCCC2=O [Example 1.06]	3.2 nM
C[C@H]1CN2CC[C@@H]1n1c(nc3ccccc31)O[C@H]1C[C@@H](C(=O)O)N(C1)c1nc(nc3c1oc1ccccc13)C(F)(F)CCCCC(F)(F)C2=O [Example 1.17]	7.2 nM
O=C(O)[C@@H]1C[C@H]2CN1c1nc(nc3c1oc1ccccc13)COCCCC(F)(F)C(=O)N1CCC(CC1)n1c(nc3ccccc31)O2 [Example 8.01]	5.6 nM
C[C@H]1CN2CC[C@@H]1n1c(nc3cc(Cl)ccc31)O[C@H]1C[C@@H](C(=O)O)N(C1)c1nc(nc3c1oc1cc(F)ccc13)CCCCOCC2=O [Example 1.09]	3.9 nM
C[C@H]1CN2CC[C@@H]1n1c(nc3cc(Cl)ccc31)O[C@H]1C[C@@H](C(=O)O)N(C1)c1nc(nc3c1oc1ccccc13)C(F)(F)OCCCCC2=O [Example 6.01]	3.5 nM
C[C@H]1CN2CC[C@@H]1n1c(nc3ccc(Cl)cc31)O[C@H]1C[C@@H](C(=O)O)N(C1)c1nc(nc3c1oc1ccccc13)COCCCCC2=O [Example 1.10]	5 nM
C[C@H]1CN2CC[C@@H]1n1c(nc3ccccc31)O[C@H]1C[C@@H](C(=O)O)N(C1)c1nc(nc3c1oc1ccccc13)C(F)(F)COCCCCC2=O [Example 3.01]	2.1 nM
C[C@@H]1CN2CC[C@H]1n1c(nc3cc(Cl)ccc31)O[C@H]1C[C@@H](C(=O)O)N(C1)c1nc(nc3c1oc1ccccc13)CCOCCCC2=O [Example 1.01]	14 nM
C[C@H]1CN2CC[C@@H]1n1c(nc3ccccc31)O[C@H]1C[C@@H](C(=O)O)N(C1)c1nc(nc3c1oc1ccccc13)CCCCCOC2=O [Example 10.02]	34 nM
C[C@@H]1CCCCC(=O)N2CCC(CC2)n2c(nc3ccccc32)O[C@H]2C[C@@H](C(=O)O)N(C2)c2nc1nc1c2oc2ccccc21 [Example 1.26]	3.4 nM
CC1CCc2nc(c3oc4ccccc4c3n2)N2C[C@H](C[C@H]2C(=O)O)Oc2nc3cc(Cl)ccc3n2[C@H]2CCN(C[C@@H]2C)C(=O)CCO1 (stereo partly drawn) [Example 1.20]	4.9 nM
C[C@H]1CN2CC[C@@H]1n1c(nc3cc(Cl)ccc31)O[C@H]1C[C@@H](C(=O)O)N(C1)c1nc(nc3c1oc1ccccc13)C(F)(F)CCCOCC2=O [Example 1.21]	3.3 nM
O=C(O)[C@@H]1C[C@H]2CN1c1nc(nc3c1oc1ccccc13)CCOCCCC(=O)N1CCC(CC1)n1c(nc3cc(F)ccc31)O2 [Example 1.03]	5.6 nM
C[C@H]1CN2CC[C@@H]1n1c(nc3cccc(Cl)c31)O[C@H]1C[C@@H](C(=O)O)N(C1)c1nc(nc3c1oc1ccccc13)CC(=O)NCCCC2=O (racemic) [Example 2.01, (12S,14S)-4-chloro-37-methyl-29,34-dioxo-11,18-dioxa-2,9,15,26,30,35,40-heptaazaoctacyclo[33.2.2.1^12,15.1^16,27.0^2,10.0^3,8.0^17,25.0^19,24]hentetraconta-3,5,7,9,16(40),17(25),19(24),20,22,26-decaene-14-carboxylic acid]	6 nM
C[C@H]1CCCCC(=O)N2CCC(CC2)n2c(nc3ccccc32)O[C@H]2C[C@@H](C(=O)O)N(C2)c2nc1nc1c2oc2ccccc21 [Example 1.25]	5.5 nM

Compound	IC50
C[C@H]1CN2CC[C@@H]1n1c(nc3ccccc31)O[C@H]1C[C@@H](C(=O)O)N(C1)c1nc(nc3c1oc1ccccc13)CCOCCOC2=O (mixture of isomers) [Example 12.01]	8.9 nM
C[C@H]1CN2CC[C@@H]1n1c(nc3cc(Cl)ccc31)O[C@H]1C[C@@H](C(=O)O)N(C1)c1nc(nc3c1oc1ccccc13)COCCOCC2=O [Example 1.11]	1.9 nM
C[C@@H]1CC(=O)N2CCC(CC2)n2c(nc3ccccc32)O[C@H]2C[C@@H](C(=O)O)N(C2)c2nc(nc3c2oc2ccccc23)CCCO1 [Example 7.01]	8.8 nM
C[C@H]1CN2CC[C@@H]1n1c(nc3ccccc31)O[C@H]1C[C@@H](C(=O)O)N(C1)c1nc(nc3c1oc1cc(Cl)ccc13)CCOCCCC2=O [Example 1.07]	3.8 nM
C[C@H]1CN2CC[C@@H]1n1c(nc3ccccc31)O[C@H]1C[C@@H](C(=O)O)N(C1)c1nc(nc3c1oc1cc(Cl)ccc13)C(F)(F)CCCCCC2=O [Example 1.16]	3.3 nM
C[C@H]1CN2CC[C@@H]1n1c(nc3cc(F)ccc31)O[C@H]1C[C@@H](C(=O)O)N(C1)c1nc(nc3c1oc1ccccc13)C(F)(F)CCCCC(F)(F)C2=O [Example 1.18]	3.9 nM
C[C@H]1CN2CC[C@@H]1n1c(nc3ccccc31)O[C@H]1C[C@@H](C(=O)O)N(C1)c1nc(nc3c1oc1cc(Cl)ccc13)C(F)(F)CCCOCC2=O [Example 1.22]	2.7 nM
O=C(O)[C@@H]1C[C@H]2CN1c1nc(nc3c1oc1ccccc13)CCCOCC(=O)N1CCC(CC1)n1c(nc3ccccc31)O2 [Example 9.01]	7.5 nM
C[C@H]1CN2CC[C@@H]1n1c(nc3ccccc31)O[C@H]1C[C@@H](C(=O)O)N(C1)c1nc(nc3c1oc1ccccc13)CCOCCCC2=O [Example 1.05]	1.8 nM
C[C@H]1CN2CC[C@@H]1n1c(nc3cc(Cl)ccc31)O[C@H]1C[C@@H](C(=O)O)N(C1)c1nc(nc3c1oc1ccccc13)CCOCCCC2=O [Example 1.02]	2.8 nM
C[C@H]1CN2CC[C@@H]1n1c(nc3ccccc31)O[C@H]1C[C@@H](C(=O)O)N(C1)c1nc(nc3c1oc1ccccc13)C(F)(F)COCCCC2=O [Example 4.01]	1.7 nM
Cc1cccc2c1nc1n2[C@H]2CCN(C[C@@H]2C)C(=O)CCCCCC(F)(F)c2nc(c3oc4ccccc4c3n2)N2C[C@H](C[C@H]2C(=O)O)O1 [Example 1.28]	11 nM
C[C@@H]1CN2CC[C@H]1n1c(nc3ccccc31)O[C@H]1C[C@@H](C(=O)O)N(C1)c1nc(nc3c1oc1ccccc13)CCCCCOC2=O [Example 10.01]	54 nM
C[C@H]1CN2CC[C@@H]1n1c(nc3cc(Cl)ccc31)O[C@H]1C[C@@H](C(=O)O)N(C1)c1nc(nc3c1oc1ccccc13)C(F)(F)CCCCCC2=O [Example 1.12]	5.2 nM
C[C@H]1CN2CC[C@@H]1n1c(nc3ccccc31)O[C@H]1C[C@@H](C(=O)O)N(C1)c1nc(nc3c1oc1cc(F)ccc13)C(F)(F)CCCCCC2=O [Example 1.14]	4.1 nM
C[C@H]1CN2CC[C@@H]1n1c(nc3ccccc31)O[C@H]1C[C@@H](C(=O)O)N(C1)c1nc(nc3c1oc1ccccc13)CCCCCN(C)C2=O [Example 13.01]	34 nM
O=C(O)[C@@H]1C[C@H]2CN1c1nc(nc3c1oc1ccccc13)COCCCCCC(=O)N1CCC(CC1)n1c(nc3cccc(F)c31)O2 [Example 5.01]	5.5 nM
C[C@H]1CN2CC[C@@H]1n1c(nc3cc(Cl)ccc31)O[C@H]1C[C@@H](C(=O)O)N(C1)c1nc(nc3c1oc1cc(Cl)ccc13)CCOCCCC2=O [Example 1.08]	4.5 nM
